The text below walks through data of patent US20250073209A1, “COVALENT TARGETING OF RhoA FOR CANCER THERAPY” (The University of Hong Kong, priority 2023, published 2025).

The structures appear in SMILES notation.

One assay concerns the target T1, FLAG-RhoA (Homo sapiens, UniProt P61586).
T1 construct: expressed in transfected cells; host or cells: HCT116
In words: CL16-alkyne labeling of FLAG-RhoA in HCT116 cells (anti-FLAG IP, CuAAC, in-gel fluorescence). Type of assay: cell-based. As to conditions: after immunoprecipitation and CuAAC. The method, then: HCT116 cells transiently expressing FLAG-RhoA were pre-treated with solvent vehicle or CL16 for 2 h, followed by the incubation with CL16-alkyne in complete medium for another 2 h. The cells were then lysed and subjected to immunoprecipitation by anti-FLAG beads. The enriched proteins were reacted with rhodamine azide through copper-catalyzed azide-alkyne cycloaddition (CuAAC), boiled with sampling buffer and separated by SDS-PAGE. The protein bands were then visualized by their in-gel fluorescence or blotted for RhoA. […] HCT116 cells were pre-treated with solvent vehicle or CL16 for 2 h, followed by the incubation with CL16-alkyne in complete medium for another 2 h. The cells were then lysed, reacted with rhodamine azide through CuAAC, boiled with sampling buffer, separated by SDS-PAGE and imaged. […]
To identify protein target and any off-targets of CL16 in CRCs, a molecular probe of CL16, CL16-alkyne (FIG. 6A), was synthesized. […] The protein bands were then visualized by their in-gel fluorescence or blotted for RhoA. […] The probe-labeled proteins were installed with rhodamine through CuAAC, and visualized by their in-gel fluorescence after SDS-PAGE. A protein band with strong fluorescence was found at −22 kDa in the sample incubated with CL16-alkyne only, in line with the molecular weight of RhoA (FIG. 6C).

The conditions of assay [1]: reported studies; cited from earlier work.
For another assay, the target named is Cdc42 (Homo sapiens, UniProt P60953). In words: Cdc42-GTP PAK-PBD pull-down in HT29 cells. Format: cell-based. Also on record: endogenous in cells; host or cells: HT29. As to conditions: HT29, 30 μM (working concentration for RhoA inhibition). The text has this:
The procedure is similar to that for RhoA-GTP assay, except that Rac1-GTP and Cdc42-GTP in CRC cells were first enriched by Rac1 Pull-Down Activation Assay Biochem Kit (Cytoskeleton #BK035) instead of using the RhoA kit. The enriched Rac1-GTP and Cdc42-GTP were then immunoblotted by Rac1/2/3 antibody (CST #2465) and Cdc42 antibody (CST #2462) respectively.
GTP loading onto RhoA is critical for the protein activation and mediating downstream signals. In view of the inhibitions of GDP-to-GTP exchange of RhoA by CL16 in vitro as discussed above, effects of CL16 on RhoA biology in colorectal cancer cells were examined. In the serum starvation-re-stimulation experiment, HCT116 cells were grown in serum-free medium with CL16, Rhosin or solvent control for 24 h, followed by stimulation with 10% FBS for 10 min. The cells were then lysed and the RhoA activity was assayed by the level of RhoA-GTP, which is the active form of RhoA. […] HT29 cells were incubated with solvent vehicle, CL16 or Rhosin in complete medium for 24 h. The cells were then washed, lysed and subjected to rhotekin pull-down for blotting RhoA-GTP, or PAK-PBD pull-down for blotting Rac1-GTP and Cdc42-GTP. Confocal fluorescence images from HCT116 and HT29 cells expressing FRET RhoA-biosensor in the serum starvation-restimulation experiment were taken.

Cdc42, sequence (P60953 whole entry): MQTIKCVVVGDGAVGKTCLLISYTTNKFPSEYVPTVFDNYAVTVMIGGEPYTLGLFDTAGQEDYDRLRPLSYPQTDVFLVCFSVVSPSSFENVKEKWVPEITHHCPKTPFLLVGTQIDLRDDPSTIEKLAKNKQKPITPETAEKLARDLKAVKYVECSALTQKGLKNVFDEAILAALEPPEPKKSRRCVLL
T1 sequence (P61586 whole entry): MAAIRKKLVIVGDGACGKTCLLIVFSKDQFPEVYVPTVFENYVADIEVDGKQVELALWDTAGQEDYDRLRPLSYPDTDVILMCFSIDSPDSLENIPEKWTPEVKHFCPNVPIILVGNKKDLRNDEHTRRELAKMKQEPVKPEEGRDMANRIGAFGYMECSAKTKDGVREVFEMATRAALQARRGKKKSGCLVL

On to `C#CCOc1cccc2oc(C3=NN(C(=O)CCl)C(c4ccco4)C3)cc12` (stereo not drawn) [CL16-alkyne], for which the “probe labeling of FLAG-RhoA (in-gel fluorescence)” value at FLAG-RhoA was “strong fluorescence from FLAG-RhoA protein”.
As for `N[C@H](Cc1c[nH]c2ccccc12)C(=O)N/N=C/c1ccc2nccnc2c1` [Rhosin, reference compound], the “working concentration (anticancer efficacy)” value in assay [1] is ≥ 30 µM. Besides, at Cdc42, the “Cdc42 activity (Cdc42-GTP)” value is “inhibited Cdc42”.
